This is an account of results in BindingDB's records for doi:10.1016/j.ejmech.2018.04.062 (Lindsley F. Kimball Research Institute, 2018).

For one series, the target named is T1, Cytochrome P450 1A2 (Homo sapiens, UniProt P05177).
T1 sequence (P05177 whole entry): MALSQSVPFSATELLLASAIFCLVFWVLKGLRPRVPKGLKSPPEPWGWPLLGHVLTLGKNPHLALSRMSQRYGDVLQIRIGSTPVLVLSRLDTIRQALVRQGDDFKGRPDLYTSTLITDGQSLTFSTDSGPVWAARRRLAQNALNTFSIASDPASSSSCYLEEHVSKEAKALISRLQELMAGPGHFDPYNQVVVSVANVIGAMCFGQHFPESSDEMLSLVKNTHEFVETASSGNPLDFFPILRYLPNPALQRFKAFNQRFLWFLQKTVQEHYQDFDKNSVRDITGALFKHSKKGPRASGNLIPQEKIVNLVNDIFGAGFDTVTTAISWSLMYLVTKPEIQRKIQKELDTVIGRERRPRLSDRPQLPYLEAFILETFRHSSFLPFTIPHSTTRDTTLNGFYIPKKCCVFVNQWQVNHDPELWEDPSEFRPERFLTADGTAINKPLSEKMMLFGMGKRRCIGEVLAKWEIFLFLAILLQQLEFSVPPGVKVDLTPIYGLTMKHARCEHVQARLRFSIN
Description: Inhibition of human liver microsome CYP1A2 using phenacetin as substrate incubated for 20 mins by LC-MS/MS analysis. In general terms: Liver microsomes are vesicles of endoplasmic reticulum, rich in cytochrome P450 enzymes.

In another series the target is Cytochrome P450 2D6 (Homo sapiens, UniProt P10635). Briefly: Inhibition of human liver microsome CYP2D6 using bufuralol as substrate incubated for 20 mins by LC-MS/MS analysis.
Cytochrome P450 2D6, sequence (P10635 whole entry): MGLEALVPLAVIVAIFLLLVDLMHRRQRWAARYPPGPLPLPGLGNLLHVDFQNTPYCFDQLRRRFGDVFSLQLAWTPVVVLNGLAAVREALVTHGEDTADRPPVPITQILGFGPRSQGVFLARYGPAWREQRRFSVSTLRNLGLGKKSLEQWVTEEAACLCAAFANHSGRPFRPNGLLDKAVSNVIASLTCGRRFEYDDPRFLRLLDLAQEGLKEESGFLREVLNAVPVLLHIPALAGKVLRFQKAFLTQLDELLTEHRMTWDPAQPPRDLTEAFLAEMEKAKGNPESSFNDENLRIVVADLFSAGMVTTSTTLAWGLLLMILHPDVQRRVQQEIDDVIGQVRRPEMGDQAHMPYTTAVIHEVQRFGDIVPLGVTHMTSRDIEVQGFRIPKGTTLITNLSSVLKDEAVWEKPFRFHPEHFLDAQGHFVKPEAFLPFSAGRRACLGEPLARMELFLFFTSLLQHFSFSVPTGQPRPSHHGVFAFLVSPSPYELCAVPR
For series [1], the target named is Potassium voltage-gated channel subfamily H member 2 (Homo sapiens, UniProt Q12809). Description: Inhibition of human ERG transfected in HEK293 cells assessed as reduction in channel current at -80 mV holding potential by whole-cell patch clamp method.
Potassium voltage-gated channel subfamily H member 2, sequence (Q12809 whole entry): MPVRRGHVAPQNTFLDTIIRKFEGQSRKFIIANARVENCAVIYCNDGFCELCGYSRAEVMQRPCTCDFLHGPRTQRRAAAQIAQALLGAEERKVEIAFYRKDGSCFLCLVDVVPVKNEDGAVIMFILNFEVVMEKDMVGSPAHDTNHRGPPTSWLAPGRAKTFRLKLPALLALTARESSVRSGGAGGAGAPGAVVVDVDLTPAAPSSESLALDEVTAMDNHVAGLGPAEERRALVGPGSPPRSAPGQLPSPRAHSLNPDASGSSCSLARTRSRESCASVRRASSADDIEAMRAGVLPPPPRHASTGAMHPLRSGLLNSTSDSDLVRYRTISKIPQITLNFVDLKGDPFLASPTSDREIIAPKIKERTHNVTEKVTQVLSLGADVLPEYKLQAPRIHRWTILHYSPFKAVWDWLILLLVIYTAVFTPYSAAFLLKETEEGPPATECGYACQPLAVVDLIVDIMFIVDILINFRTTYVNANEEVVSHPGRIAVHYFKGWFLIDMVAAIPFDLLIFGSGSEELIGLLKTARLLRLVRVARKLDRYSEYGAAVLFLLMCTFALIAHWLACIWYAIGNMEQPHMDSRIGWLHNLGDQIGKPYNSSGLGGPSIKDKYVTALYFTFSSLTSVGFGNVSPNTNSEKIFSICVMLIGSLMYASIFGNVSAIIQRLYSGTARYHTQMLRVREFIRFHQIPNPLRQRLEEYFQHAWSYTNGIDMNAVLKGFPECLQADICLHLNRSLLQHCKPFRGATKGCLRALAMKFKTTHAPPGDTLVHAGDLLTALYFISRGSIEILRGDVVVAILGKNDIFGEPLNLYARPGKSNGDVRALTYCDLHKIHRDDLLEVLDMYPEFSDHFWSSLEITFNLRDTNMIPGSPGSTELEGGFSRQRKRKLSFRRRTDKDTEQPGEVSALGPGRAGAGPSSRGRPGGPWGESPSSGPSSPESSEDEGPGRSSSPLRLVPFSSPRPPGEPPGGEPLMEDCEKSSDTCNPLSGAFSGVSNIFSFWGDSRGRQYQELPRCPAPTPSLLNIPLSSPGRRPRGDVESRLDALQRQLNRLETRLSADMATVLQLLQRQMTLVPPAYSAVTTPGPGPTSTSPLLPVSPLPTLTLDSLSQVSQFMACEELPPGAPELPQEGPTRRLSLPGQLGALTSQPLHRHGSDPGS
The target of another series is T2, Cytochrome P450 2C8 (Homo sapiens, UniProt P10632).
T2 sequence (P10632 whole entry): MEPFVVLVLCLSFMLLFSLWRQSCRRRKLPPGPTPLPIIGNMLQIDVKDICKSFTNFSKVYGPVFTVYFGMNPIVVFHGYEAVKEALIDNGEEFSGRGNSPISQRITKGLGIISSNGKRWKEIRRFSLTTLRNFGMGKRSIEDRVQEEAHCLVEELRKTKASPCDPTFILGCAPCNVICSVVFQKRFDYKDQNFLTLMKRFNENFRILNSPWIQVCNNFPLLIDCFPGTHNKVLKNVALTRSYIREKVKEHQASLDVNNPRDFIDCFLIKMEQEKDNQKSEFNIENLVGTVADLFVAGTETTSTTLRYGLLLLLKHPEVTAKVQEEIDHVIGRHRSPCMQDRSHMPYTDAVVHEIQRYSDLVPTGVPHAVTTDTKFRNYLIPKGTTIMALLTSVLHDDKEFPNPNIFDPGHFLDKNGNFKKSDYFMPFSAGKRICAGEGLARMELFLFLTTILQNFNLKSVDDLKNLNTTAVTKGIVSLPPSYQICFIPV
Briefly: Inhibition of human liver microsome CYP2C8 using paclitaxel as substrate incubated for 20 mins by LC-MS/MS analysis.

In another series the target is Cytochrome P450 2C9 (Homo sapiens, UniProt P11712). Briefly: Inhibition of human liver microsome CYP2C9 using diclofenac as substrate incubated for 20 mins by LC-MS/MS analysis.
Cytochrome P450 2C9, sequence (P11712 whole entry): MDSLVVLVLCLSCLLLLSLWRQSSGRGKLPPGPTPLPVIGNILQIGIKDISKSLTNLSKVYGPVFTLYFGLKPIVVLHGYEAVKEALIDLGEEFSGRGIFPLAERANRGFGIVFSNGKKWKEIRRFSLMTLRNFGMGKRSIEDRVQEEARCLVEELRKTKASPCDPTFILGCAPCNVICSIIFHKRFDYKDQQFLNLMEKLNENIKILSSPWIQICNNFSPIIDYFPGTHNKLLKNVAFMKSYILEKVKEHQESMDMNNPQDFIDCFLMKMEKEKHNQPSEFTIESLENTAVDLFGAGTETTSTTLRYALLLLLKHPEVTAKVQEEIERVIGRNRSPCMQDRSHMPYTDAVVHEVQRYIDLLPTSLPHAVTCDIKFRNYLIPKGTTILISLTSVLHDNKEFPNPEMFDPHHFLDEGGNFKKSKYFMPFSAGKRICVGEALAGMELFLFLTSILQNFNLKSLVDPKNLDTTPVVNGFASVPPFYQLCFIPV

Bounds are passed on as bounds.

For `NC[C@H](NC(=O)c1ccc(-c2ccc(C(F)(F)F)c(F)c2)[nH]1)c1nc(CO)cs1`, the half-inhibitory concentration (IC50) at Cytochrome P450 1A2 was greater than 25 µM; against Cytochrome P450 2D6 it was greater than 25 µM; in series [1] it was 3 µM; at Cytochrome P450 2C8 it was greater than 25 µM; on Cytochrome P450 2C9 it was greater than 25 µM.

The term IC50 denotes the concentration at which inhibition is half-maximal.
